Where a name gives a salt, the structure may show the parent alone.
Legend:
[1] = target: T1, PDE10A (human) (Homo sapiens, UniProt Q9Y233); assay: Measurement of PDE activity (HTRF cAMP kit), human PDE10A; type: biochemical; conditions: PDE enzymatic reaction, substrate 20 nM for PDE10, 60 minutes at 29 C
T1 construct: purchased BPS Bioscience
Outline: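 Recombinant human PDE10A (10–250 pM range across PDEs) with 20 nM cAMP substrate in 20 mM Tris-HCl pH 7.5, 10 mM MgCl2, 0.1% BSA, compound pre-mixed with enzyme. Ran 60 min at 29 °C. Remaining cAMP read by HTRF, converted to % of uninhibited activity, and IC50 fitted.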

[2] = Determination of the microsomal half-life, rat liver microsomes; conditions: rat, liver microsomes, pH 7.4
Protocol: The test substances were incubated in a concentration of 0.5 μM as follows:
0.5 μM test substance are preincubated together with liver microsomes from different species (from rat, human or other species) (0.25 mg of microsomal protein/10 in 0.05 M potassium phosphate buffer of pH 7.4 in microtiter plates at 37° C. for 5 min. The reaction is started by adding NADPH (1 mg/mL). After 0, 5, 10, 15, 20 and 30 min., 50 μl aliquots are removed, and the reaction is immediately stopped and cooled with the same volume of acetonitrile. The samples are frozen until analyzed. The remaining concentration of undegraded test substance is determined by MSMS. The half-life (T½) is determined from the gradient of the signal of test substance/unit time plot, it being possible to calculate the half-life of the test substance, assuming first order kinetics, from the decrease in the concentration of the compound with time. The microsomal clearance (mCl) is calculated from mCl=ln 2/T½/(content of microsomal protein in mg/ml)×1000 [ml/min/mg]

[3] = Determination of the microsomal half-life, human liver microsomes; conditions: human, liver microsomes, pH 7.4

T1 sequence (Q9Y233 whole entry): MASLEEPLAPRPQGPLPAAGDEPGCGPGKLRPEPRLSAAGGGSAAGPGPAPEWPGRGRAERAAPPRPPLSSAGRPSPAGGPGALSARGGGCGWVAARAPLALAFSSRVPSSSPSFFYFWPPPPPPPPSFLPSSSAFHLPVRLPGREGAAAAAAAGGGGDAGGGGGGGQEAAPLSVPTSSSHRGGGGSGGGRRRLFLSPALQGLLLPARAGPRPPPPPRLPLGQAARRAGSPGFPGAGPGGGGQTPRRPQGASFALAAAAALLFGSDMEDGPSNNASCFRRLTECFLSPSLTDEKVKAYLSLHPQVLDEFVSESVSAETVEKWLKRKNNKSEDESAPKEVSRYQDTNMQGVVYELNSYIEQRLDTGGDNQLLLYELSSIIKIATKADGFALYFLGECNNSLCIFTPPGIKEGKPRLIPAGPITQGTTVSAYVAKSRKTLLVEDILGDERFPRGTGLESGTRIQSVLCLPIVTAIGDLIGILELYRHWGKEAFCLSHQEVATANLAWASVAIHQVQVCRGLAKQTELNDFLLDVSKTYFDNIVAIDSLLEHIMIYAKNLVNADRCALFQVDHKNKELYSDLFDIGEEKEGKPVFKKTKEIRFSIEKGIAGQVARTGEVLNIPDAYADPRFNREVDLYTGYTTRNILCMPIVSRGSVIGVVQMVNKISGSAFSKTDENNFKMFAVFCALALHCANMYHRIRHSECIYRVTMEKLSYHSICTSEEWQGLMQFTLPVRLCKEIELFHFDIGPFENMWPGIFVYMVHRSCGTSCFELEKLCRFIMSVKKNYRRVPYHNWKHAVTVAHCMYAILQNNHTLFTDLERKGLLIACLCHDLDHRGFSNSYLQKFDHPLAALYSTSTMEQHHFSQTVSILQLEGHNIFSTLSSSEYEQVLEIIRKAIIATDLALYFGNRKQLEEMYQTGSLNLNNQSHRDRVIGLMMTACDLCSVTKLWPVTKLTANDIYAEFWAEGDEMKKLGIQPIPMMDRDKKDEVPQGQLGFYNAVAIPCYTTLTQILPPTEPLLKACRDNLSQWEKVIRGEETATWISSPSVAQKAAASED

| Compound | IC50 [1] [nM] | microsomal CLint at 0.5 μM [2] [µL/min/mg] | microsomal CLint at 0.5 μM [3] [µL/min/mg] |
| --- | --- | --- | --- |
| O=C1c2c(N3CCNCC3)ccnc2CN1CCc1ccc2ccccc2n1 [Example 163, 4-piperazin-1-yl-6-(2-quinolin-2-yl-ethyl)-6,7-dihydro-pyrrolo[3,4-b]pyridin-5-one] | < 100 | < 100 | < 100 |
| O=C1Cc2ccc(-c3ccnc4c3C(=O)N(CCc3ccc5ccccc5n3)C4)cc2N1 [Example 165, 4-(2-oxo-2,3-dihydro-1H-indol-6-yl)-6-(2-quinolin-2-yl-ethyl)-6,7-dihydro-pyrrolo[3,4-b]pyridin-5-one] | < 100 | < 100 | < 100 |
| O=C1c2c(-c3cncnc3)ccnc2CN1CCc1ccc2ccccc2n1 [Example 166, 4-Pyrimidin-5-yl-6-(2-quinolin-2-yl-ethyl)-6,7-dihydro-pyrrolo[3,4-b]pyridin-5-one] | < 100 | < 100 | < 100 |
| O=C1c2c(cccc2N2CCS(=O)(=O)CC2)CN1CCc1nc2ccccc2[nH]1 [Example 175, 2-[2-(1H-Benzoimidazol-2-yl)-ethyl]-7-(1,1-dioxo-thiomorpholin-4-yl)-2,3-dihydro-isoindol-1-one] | 100 to 200 | < 100 | < 100 |
| Cc1ncccc1COc1cccc2c1C(=O)N(CCc1ccc3ccccc3n1)C2 [Example 179, 7-(2-Methyl-pyridin-3-ylmethoxy)-2-(2-quinolin-2-yl-ethyl)-2,3-dihydro-isoindol-1-one] | < 100 | 100 to 220 | > 220 |
| COc1ccc(-c2cn[nH]c2)c2c1CN(CCc1ccc3ccccc3n1)C2=O [Example 180, 4-Methoxy-7-(1H-pyrazol-4-yl)-2-(2-quinolin-2-yl-ethyl)-2,3-dihydro-isoindol-1-one] | < 100 | > 220 | 100 to 220 |
| COc1ccc(-c2cncnc2)c2c1CN(CCc1ccc3ccccc3n1)C2=O [Example 183, 4-Methoxy-7-pyrimidin-5-yl-2-(2-quinolin-2-yl-ethyl)-2,3-dihydro-isoindol-1-one] | < 100 | 100 to 220 | 100 to 220 |
| Cn1c(CCN2Cc3cccc(N4CCS(=O)(=O)CC4)c3C2=O)nc2ccccc21 [Example 184, 7-(1,1-Dioxothiomorpholin-4-yl)-2-[2-(1-methyl-1H-benzoimidazol-2-yl)-ethyl]-2,3-dihydro-isoindol-1-one trifluoroacetate] | < 100 | < 100 | 100 to 220 |
| COc1ccc(-c2cccnc2)c2c1CN(CCc1ccc3ccccc3n1)C2=O [Example 185, 4-Methoxy-7-pyridin-3-yl-2-(2-quinolin-2-yl-ethyl)-2,3-dihydro-isoindol-1-one trifluoroacetate] | < 100 | 100 to 220 | > 220 |
| CN(C)Cc1ccc(-c2cccc3c2C(=O)N(CCc2ccc4ccccc4n2)C3)cc1 [Example 188, 7-(4-Dimethylaminomethyl-phenyl)-2-(2-quinolin-2-yl-ethyl)-2,3-dihydro-isoindol-1-one (dihydrochloride)] | 200 to 500 | 100 to 220 | 100 to 220 |
| COc1ccc(N2CCS(=O)(=O)CC2)c2c1CN(CCc1ccc3ccccc3n1)C2=O [Example 189, 7-(1,1-Dioxo-thiomorpholin-4-yl)-4-methoxy-2-(2-quinolin-2-yl-ethyl)-2,3-dihydro-isoindol-1-one] | < 100 | 100 to 220 | 100 to 220 |
| O=C1c2c(cccc2NC2CCS(=O)(=O)C2)CN1CCc1ccc2ccccc2n1 (stereo not drawn) [Example 190, 7-(1,1-Dioxo-tetrahydro-thiophen-3-ylamino)-2-(2-quinolin-2-yl-ethyl)-2,3-dihydro-isoindol-1-one] | 100 to 200 | 100 to 220 | 100 to 220 |
| NCc1ccc(-c2cccc3c2C(=O)N(CCc2ccc4ccccc4n2)C3)cc1 [Example 193, 7-(4-Aminomethyl-phenyl)-2-(2-quinolin-2-yl-ethyl)-2,3-dihydro-isoindol-1-one] | 100 to 200 | < 100 | < 100 |
| CNCc1ccc(-c2cccc3c2C(=O)N(CCc2ccc4ccccc4n2)C3)cc1 [Example 194, 7-(4-Methylaminomethyl-phenyl)-2-(2-quinolin-2-yl-ethyl)-2,3-dihydro-isoindol-1-one] | 200 to 500 | 100 to 220 | 100 to 220 |
| Cn1c(CCN2Cc3cccc(-c4ccncc4)c3C2=O)nc2ccccc21 [Example 195, 2-[2-(1-Methyl-1H-benzoimidazol-2-yl)-ethyl]-7-pyridin-4-yl-2,3-dihydro-isoindol-1-one] | < 100 | 100 to 220 | > 220 |
| Cn1c(CCN2Cc3cccc(-c4cccnc4)c3C2=O)nc2ccccc21 [Example 196, 2-[2-(1-Methyl-1H-benzoimidazol-2-yl)-ethyl]-7-pyridin-3-yl-2,3-dihydro-isoindol-1-one] | < 100 | < 100 | > 220 |
| Cn1c(CCN2Cc3cccc(-c4cncnc4)c3C2=O)nc2ccccc21 [Example 197, 2-[2-(1-Methyl-1H-benzoimidazol-2-yl)-ethyl]-7-pyrimidin-5-yl-2,3-dihydro-isoindol-1-one] | < 100 | < 100 | 100 to 220 |
| O=C1c2cccc(-c3cc[nH]n3)c2CN1CCc1ccc2ccccc2n1 [Example 200, 4-(1H-Pyrazol-3-yl)-2-(2-quinolin-2-yl-ethyl)-2,3-dihydro-isoindol-1-one] | < 100 | > 220 | 100 to 220 |
| Cn1nccc1-c1cccc2c1CN(CCc1ccc3ccccc3n1)C2=O [Example 202, 4-(2-Methyl-2H-pyrazol-3-yl)-2-(2-quinolin-2-yl-ethyl)-2,3-dihydro-isoindol-1-one trifluoroacetate] | < 100 | > 220 | 100 to 220 |
| COc1ccc(-c2ccnn2C)c2c1CN(CCc1ccc3ccccc3n1)C2=O [Example 210, 4-Methoxy-7-(2-methyl-2H-pyrazol-3-yl)-2-(2-quinolin-2-yl-ethyl)-2,3-dihydro-isoindol-1-one] | < 100 | > 220 | 100 to 220 |
| Cn1nccc1-c1ccnc2c1C(=O)N(CCc1nc3ccccc3n1C)C2 [Example 214, 6-[2-(1-Methyl-1H-benzoimidazol-2-yl)-ethyl]-4-(2-methyl-2H-pyrazol-3-yl)-6,7-dihydro-pyrrolo[3,4-b]pyridin-5-one] | 100 to 200 | < 100 | < 100 |
| O=C1c2c(-c3cncnc3)ccnc2CN1CCc1nc2ccccn2n1 [Example 215, 4-Pyrimidin-5-yl-6-(2-[1,2,4]triazolo[1,5-a]pyridin-2-yl-ethyl)-6,7-dihydro-pyrrolo[3,4-b]pyridin-5-one] | 200 to 500 | < 100 | < 100 |
| Cn1c(CCN2Cc3nccc(N4CCOCC4)c3C2=O)nc2ccccc21 [Example 216, 6-[2-(1-Methyl-1H-benzoimidazol-2-yl)-ethyl]-4-morpholin-4-yl-6,7-dihydro-pyrrolo[3,4-b]pyridin-5-one] | < 100 | < 100 | < 100 |
| COc1ccc(-c2cncnc2)c2c1CN(CCc1cn3ccccc3n1)C2=O [Example 217, 2-(2-Imidazo[1,2-a]pyridin-2-yl-ethyl)-4-methoxy-7-pyrimidin-5-yl-2,3-dihydro-isoindol-1-one trifluoroacetate] | < 100 | < 100 | < 100 |
| COc1ccc(-c2cccnc2)c2c1CN(CCc1cn3ccccc3n1)C2=O [Example 218, 2-(2-Imidazo[1,2-a]pyridin-2-yl-ethyl)-4-methoxy-7-pyridin-3-yl-2,3-dihydro-isoindol-1-one trifluoroacetate] | < 100 | < 100 | < 100 |
| O=C1c2c(cccc2-c2ccncc2)CN1CCc1nc2ccccc2s1 [Example 223, 2-(2-Benzothiazol-2-yl-ethyl)-7-pyridin-4-yl-2,3-dihydro-isoindol-1-one trifluoroacetate] | < 100 | < 100 | < 100 |
| O=C1c2c(N3CCOCC3)ccnc2CN1CCc1nc2ccccn2n1 [Example 227, 4-Morpholin-4-yl-6-(2-[1,2,4]triazolo[1,5-a]pyridin-2-yl-ethyl)-6,7-dihydro-pyrrolo[3,4-b]pyridin-5-one] | < 100 | < 100 | < 100 |
| O=C1c2c(cccc2-c2ccncc2)CN1CCc1nc2ccccn2n1 [Example 230, 7-Pyridin-4-yl-2-(2-[1,2,4]triazolo[1,5-a]pyridin-2-yl-ethyl)-2,3-dihydro-isoindol-1-one] | 200 to 500 | < 100 | < 100 |
| O=C1c2c(cccc2N2CCS(=O)(=O)CC2)CN1CCc1cn2ccccc2n1 [Example 234, 7-(1,1-Dioxothiomorpholin-4-yl)-2-(2-imidazo[1,2-a]pyridin-2-yl-ethyl)-2,3-dihydro-isoindol-1-one] | < 100 | < 100 | < 100 |
| O=C1c2c(cccc2-c2cccnc2)CN1CCc1cn2ccccc2n1 [Example 235, 2-(2-Imidazo[1,2-a]pyridin-2-yl-ethyl)-7-pyridin-3-yl-2,3-dihydro-isoindol-1-one] | < 100 | < 100 | 100 to 220 |

From patent US9938269B2, “Inhibitor compounds of phosphodiesterase type 10A” (ABBVIE INC., priority 2011, dated 2018)
